Columns and labels:
[1] = system: Colo205 (colon adenocarcinoma cell line); assay: Cell-based proliferation assay, Colo205; details: Homo sapiens, COLO 205; Colo205 cells, 96 h treatment
Procedure: (§1) Human cancer cell lines HL60 (acute myeloid leukemia cell line), Colo205 (colon adenocarcinoma cell line), HEL92.1.7 (erythroleukemia cell line), MV4-11 (acute myeloid leukemia cell line) and DU145 (metastatic prostate cancer cell line) were obtained from ATCC. They were cultivated in the media according to the ATCC work instructions. Colo205 and DU145 cells were seeded in 96-wells plate 5000 cells per cell and 1000 cells per well respectively. HEL92.1.7 and MV4-11 cells were seeded at 6000 cells per well while HL60 cells were seeded at 8000 cells per well in 96 well plate. The plates were incubated at 37° C., 5% CO2, for 24 h. Cells were treated with compounds at various concentrations for 96 h. Cell growth was then monitored using Celltiter96 Aqueous One Solution Cell Proliferation Assay from Promega (Madison Wis.). Dose response curves were plotted to determine GI50 values for the compounds using XL-fit (ID Business Solution, Emeryville, Calif.).

[2] = biological target: T1, JAK2 (Homo sapiens, UniProt O60674); assay: In vitro kinase activity assay (PKLight), JAK2; type: biochemical; details: recombinant JAK2, poly(Glu,Ala,Tyr) substrate, 0.2 μM ATP
T1 construct: purchased Invitrogen PV4210
T1 sequence (O60674 whole entry): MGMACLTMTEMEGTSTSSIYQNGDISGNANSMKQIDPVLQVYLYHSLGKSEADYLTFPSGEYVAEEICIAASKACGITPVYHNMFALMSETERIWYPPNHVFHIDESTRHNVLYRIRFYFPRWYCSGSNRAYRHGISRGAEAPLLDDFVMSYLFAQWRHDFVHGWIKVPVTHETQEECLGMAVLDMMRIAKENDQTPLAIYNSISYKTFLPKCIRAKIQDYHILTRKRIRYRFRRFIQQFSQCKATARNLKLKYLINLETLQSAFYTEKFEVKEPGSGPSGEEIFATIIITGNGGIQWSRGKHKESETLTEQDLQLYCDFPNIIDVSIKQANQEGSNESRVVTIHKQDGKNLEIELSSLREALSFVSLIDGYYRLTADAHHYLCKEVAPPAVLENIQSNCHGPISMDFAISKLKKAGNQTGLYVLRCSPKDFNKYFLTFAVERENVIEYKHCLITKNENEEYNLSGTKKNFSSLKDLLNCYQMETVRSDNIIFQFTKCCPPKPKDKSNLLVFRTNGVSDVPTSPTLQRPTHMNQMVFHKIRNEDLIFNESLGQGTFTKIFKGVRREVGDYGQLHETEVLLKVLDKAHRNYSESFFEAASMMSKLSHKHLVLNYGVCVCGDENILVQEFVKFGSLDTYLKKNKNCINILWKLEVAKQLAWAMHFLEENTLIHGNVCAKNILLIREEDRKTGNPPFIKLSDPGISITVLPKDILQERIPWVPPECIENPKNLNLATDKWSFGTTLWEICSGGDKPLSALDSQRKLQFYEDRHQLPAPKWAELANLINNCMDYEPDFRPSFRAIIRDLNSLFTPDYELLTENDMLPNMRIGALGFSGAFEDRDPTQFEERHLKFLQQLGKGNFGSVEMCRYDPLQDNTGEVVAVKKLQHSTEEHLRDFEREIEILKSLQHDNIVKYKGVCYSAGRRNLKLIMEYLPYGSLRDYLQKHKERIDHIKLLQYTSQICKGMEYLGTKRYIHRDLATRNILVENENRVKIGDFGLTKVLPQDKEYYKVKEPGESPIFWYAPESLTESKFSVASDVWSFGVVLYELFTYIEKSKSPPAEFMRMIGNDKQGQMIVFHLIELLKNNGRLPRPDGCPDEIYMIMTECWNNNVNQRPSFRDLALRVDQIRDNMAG
Procedure: (§2) All assays were carried out in 384-well white microtiter plates using the PKLight assay system from Cambrex (East rutherford, N.J.). This assay platform is essentially a luminometdc assay for the detection of ATP in the reaction using a luciferase-coupled reaction. For CDK2/Cyclin A assay, the reaction mixture consisted of the following components in 25 μL assay buffer (50 mM Hepes pH 7.5, 10 mM MgCl2, 5 mM MnCl2, 5 mM BGP, 1 mM DTT, 0.1 mM sodium orthovanadate), 1.4 μg/mL of CDK2/Cyclin A complex, 0.5 μM of RbING substrate (Invitrogen, Cat # PV2939) and 0.5 μM of ATP. The compounds were tested at 8 concentrations prepared from 4-fold serial dilution starting at 10 μM. The reaction was incubated at room temperature for 2 hr. 13 μL of PKLight ATP detection reagent was added and the reaction was incubated for 10 min. Luminescence signals were detected on a multi-label plate reader (Victor^2 V 1420, Perkin-Elmer). The other kinase assays were identical except for the following differences in reagents. For FLT3 assays, the reaction contained 2.0 μg/mL FLT3 enzyme, 5 μM of poly(Glu,Tyr) substrate (Sigma, Cat # P0275) and 4 μM of ATP. For JAK2 assays, the reaction contained 0.6 μg/mL of JAK2 enzyme, 2 μM of poly(Glu,Ala,Tyr) substrate (Sigma, Cat # P3899) and 0.2 μM of ATP. […] The analytical software, Prism 4.0 (GraphPad Software Pte Ltd) was used to generate IC50 values from the data.

[3] = biological target: T2, FLT3 (Homo sapiens, UniProt P36888); assay: In vitro kinase activity assay (PKLight), FLT3; type: biochemical; details: recombinant FLT3, poly(Glu,Tyr) substrate, 4 μM ATP
T2 construct: purchased Invitrogen PV3182
T2 sequence (P36888 27-993): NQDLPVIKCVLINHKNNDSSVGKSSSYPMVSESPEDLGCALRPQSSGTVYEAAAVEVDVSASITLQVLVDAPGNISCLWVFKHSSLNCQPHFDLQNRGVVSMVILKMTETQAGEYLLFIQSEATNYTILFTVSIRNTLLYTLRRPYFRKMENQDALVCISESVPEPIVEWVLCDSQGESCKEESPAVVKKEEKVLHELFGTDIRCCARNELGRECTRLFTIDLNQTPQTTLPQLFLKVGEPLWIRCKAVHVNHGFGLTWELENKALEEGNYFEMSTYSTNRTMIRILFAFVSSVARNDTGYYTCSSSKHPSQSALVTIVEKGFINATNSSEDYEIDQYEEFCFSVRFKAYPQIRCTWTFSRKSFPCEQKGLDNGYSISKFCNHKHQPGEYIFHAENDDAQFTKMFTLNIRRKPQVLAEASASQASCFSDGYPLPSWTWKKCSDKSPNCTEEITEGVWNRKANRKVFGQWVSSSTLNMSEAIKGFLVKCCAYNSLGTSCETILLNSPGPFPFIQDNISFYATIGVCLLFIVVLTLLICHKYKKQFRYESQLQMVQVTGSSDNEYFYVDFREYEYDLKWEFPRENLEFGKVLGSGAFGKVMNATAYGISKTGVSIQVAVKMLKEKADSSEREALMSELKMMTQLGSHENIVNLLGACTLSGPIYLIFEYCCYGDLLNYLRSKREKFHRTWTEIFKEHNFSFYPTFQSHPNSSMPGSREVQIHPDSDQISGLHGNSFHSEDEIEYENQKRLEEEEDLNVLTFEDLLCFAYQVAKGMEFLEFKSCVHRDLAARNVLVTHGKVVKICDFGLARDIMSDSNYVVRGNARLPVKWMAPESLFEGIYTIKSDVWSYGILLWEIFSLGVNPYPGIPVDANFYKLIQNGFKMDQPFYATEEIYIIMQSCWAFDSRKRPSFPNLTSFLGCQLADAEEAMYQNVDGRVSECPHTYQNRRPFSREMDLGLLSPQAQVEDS
Procedure: The recombinant enzymes (CDK2/CyclinA, FLT3, JAK2 and JAK2 V617F) were purchased from Invitrogen (Cat # PV3267, 3182, 4210 and 4347 respectively). All assays were carried out in 384-well white microtiter plates using the PKLight assay system from Cambrex (East rutherford, N.J.). This assay platform is essentially a luminometdc assay for the detection of ATP in the reaction using a luciferase-coupled reaction. For CDK2/Cyclin A assay, the reaction mixture consisted of the following components in 25 μL assay buffer (50 mM Hepes pH 7.5, 10 mM MgCl2, 5 mM MnCl2, 5 mM BGP, 1 mM DTT, 0.1 mM sodium orthovanadate), 1.4 μg/mL of CDK2/Cyclin A complex, 0.5 μM of RbING substrate (Invitrogen, Cat # PV2939) and 0.5 μM of ATP. The compounds were tested at 8 concentrations prepared from 4-fold serial dilution starting at 10 μM. The reaction was incubated at room temperature for 2 hr. 13 μL of PKLight ATP detection reagent was added and the reaction was incubated for 10 min. Luminescence signals were detected on a multi-label plate reader (Victor^2 V 1420, Perkin-Elmer). The other kinase assays were identical except for the following differences in reagents. For FLT3 assays, the reaction contained 2.0 μg/mL FLT3 enzyme, 5 μM of poly(Glu,Tyr) substrate (Sigma, Cat # P0275) and 4 μM of ATP. For JAK2 assays, the reaction contained 0.6 μg/mL of JAK2 enzyme, 2 μM of poly(Glu,Ala,Tyr) substrate (Sigma, Cat # P3899) and 0.2 μM of ATP. For JAK2 V617F mutant assays, the reaction contained 8.0 μg/mL of JAK2 mutant enzyme, 2 μM of poly(Glu,Ala,Tyr) substrate (Sigma, Cat # P3899) and 0.2 μM of ATP. The analytical software, Prism 4.0 (GraphPad Software Pte Ltd) was used to generate IC50 values from the data. […] IC50 values are shown below in Table 3.

[4] = system: HL60 (acute myeloid leukemia cell line); assay: Cell-based proliferation assay, HL60; details: Homo sapiens, HL-60; HL60 cells, 96 h treatment
Procedure: as §1

[5] = system: MV4-11 (acute myeloid leukemia cell line); assay: Cell-based proliferation assay, MV4-11; details: Homo sapiens; MV4-11 cells, 96 h treatment
Procedure: as §1

[6] = system: HEL92.1.7 (erythroleukemia cell line); assay: Cell-based proliferation assay, HEL92.1.7; details: Homo sapiens, HEL 92.1.7; HEL92.1.7 cells, 96 h treatment
Procedure: as §1

[7] = system: DU145 (metastatic prostate cancer cell line); assay: Cell-based proliferation assay, DU145; details: Homo sapiens, DU-145; DU145 cells, 96 h treatment
Procedure: as §1

[8] = biological target: T3, JAK2 V617F (Homo sapiens, UniProt O60674, V617F); assay: In vitro kinase activity assay (PKLight), JAK2 V617F mutant; type: biochemical; details: recombinant JAK2 V617F mutant, poly(Glu,Ala,Tyr) substrate, 0.2 μM ATP
T3 construct: purchased Invitrogen PV4347
T3 sequence (O60674 whole entry V617F): as the sequence (O60674 whole entry) above, with V617F counted along it
Procedure: as §2

[9] = biological target: T4, CDK2/CyclinA (Homo sapiens, UniProt P24941); assay: In vitro kinase activity assay (PKLight), CDK2/Cyclin A; type: biochemical; details: recombinant CDK2/Cyclin A, RbING substrate, 0.5 μM ATP, 2 hr
T4 construct: purchased Invitrogen PV3267
Procedure: as §2

Row | SMILES | GI50 [1] | IC50 [2] | IC50 [3] | GI50 [4] | GI50 [5] | GI50 [6] | GI50 [7] | IC50 [8] | IC50 [9]
1 | CN1C/C=C/CCOc2cccc(c2)-c2ccnc(n2)Nc2cccc(c2)C1 [Compound 1] | ≤ 1000 nM | ≤ 1000 nM | ≤ 1000 nM | ≤ 1000 nM | ≤ 1000 nM | ≤ 1000 nM | ≤ 1000 nM | ≤ 1000 nM | 
2 | O=C1NC/C=C/COCc2cccc(c2)Nc2nccc(n2)-c2cccc1c2 [Compound 17] | > 5000 nM | ≤ 1000 nM | 1000 to 5000 nM | > 5000 nM | > 5000 nM | > 5000 nM | > 5000 nM | ≤ 1000 nM | > 5000 nM
3 | CN1Cc2cccc(c2)Nc2nccc(n2)-c2cccc(c2)OCCC2CC2C1 (stereo not drawn) [Compound 20] | ≤ 1000 nM | ≤ 1000 nM | ≤ 1000 nM | ≤ 1000 nM |  |  |  | ≤ 1000 nM | ≤ 1000 nM
4 | CCN(CC)CCOc1ccc2cc1CN(C)C/C=C/CCOc1cccc(c1)-c1ccnc(n1)N2 [Compound 32] | ≤ 1000 nM | ≤ 1000 nM | ≤ 1000 nM | ≤ 1000 nM | ≤ 1000 nM | ≤ 1000 nM | ≤ 1000 nM | ≤ 1000 nM | ≤ 1000 nM
5 | C1=C/CN(C2CC2)Cc2cc(ccc2OCCN2CCOCC2)Nc2nccc(n2)-c2cccc(c2)OCC/1 [Compound 36] | 1000 to 5000 nM | ≤ 1000 nM | ≤ 1000 nM | ≤ 1000 nM | ≤ 1000 nM | 1000 to 5000 nM | > 5000 nM | ≤ 1000 nM | ≤ 1000 nM

The remaining lines, values ahead:

Row | GI50 [1] | IC50 [2] | IC50 [3] | GI50 [4] | GI50 [5] | GI50 [6] | GI50 [7] | IC50 [8] | IC50 [9] | SMILES
6 |  | ≤ 1000 nM | ≤ 1000 nM | ≤ 1000 nM | ≤ 1000 nM | ≤ 1000 nM |  | ≤ 1000 nM | ≤ 1000 nM | CN1C/C=C/CCOc2cccc(c2)-c2ccnc(n2)Nc2ccc(N3CCOCC3)c(c2)C1 [Compound 39]
7 | ≤ 1000 nM | ≤ 1000 nM | ≤ 1000 nM | ≤ 1000 nM | ≤ 1000 nM | ≤ 1000 nM | ≤ 1000 nM | ≤ 1000 nM | ≤ 1000 nM | CN1C/C=C/CCOc2cccc(c2)-c2ccnc(n2)Nc2ccc(OCCN3CCCC3)c(c2)C1 [Compound 40]
8 | ≤ 1000 nM | ≤ 1000 nM | ≤ 1000 nM | ≤ 1000 nM | ≤ 1000 nM | ≤ 1000 nM | ≤ 1000 nM | ≤ 1000 nM | ≤ 1000 nM | CN1C/C=C/CCOc2cc(F)cc(c2)-c2ccnc(n2)Nc2ccc(OCCN3CCCC3)c(c2)C1 [Compound 52]
